According to patent US12590081B2, “Fused imidazole derivatives, preparation method and medicinal use thereof” (Jiangsu Hengrui Pharmaceuticals Co., Ltd., priority 2020, dated 2026):

target: T1, GLP-1 receptor (Homo sapiens, UniProt P43220); experiment: Agonist activity against GLP-1 receptor, CRE-luciferase reporter (ONE-Glo) in CHO-K1/CRE-luc/GLP-1 receptor cells; format: cell-based; conditions: 6 h incubation, luciferase readout
T1 construct: expressed in transfected cells
Text: This experiment was intended to test the agonist activity of the compound molecules against the GLP-1 receptor and evaluate the in vitro activity of the molecules according to EC50. The experiment adopted a ONE-Glo™ Luciferase Assay System (Promega, E6110). Under the action of compound molecules, GLP-1R downstream signaling pathways were activated to cause elevated cAMP level. The combination of cAMP and CRE could start the transcription expression of CRE downstream luciferase genes, the luciferase could emit fluorescence when reacting with substrates thereof, and the activity of the compound for agonizing GLP-1 receptors was reflected by measuring fluorescence signals through a ONE-Glo™ reagent.
Stably-expressed CHO-K1/CRE-luc/GLP-1 receptor cell strains (self-construction of GLP-1 receptor plasmid; CRE-luc plasmid Promega E8471) was constructed. CHO-K1/CRE-luc/GLP-1 receptor cells were digested, and resuspended after centrifugation. Single cell suspension was uniformly mixed, and adjusted to a viable cell density of 2.5×10^5 cell/mL with a cell culture medium (DME/F-12+10% FBS), and the resulting solution was added to a 96-well cell culture plate at 90 μL/well (Corning, #3903). The plate was incubated in an incubator for 16 h (37° C., 5% CO2).
The compound was dissolved in DMSO to prepare a stock solution with an initial concentration of 20 mM. The starting concentration of the small molecule compound was 0.2 mM, and the compound underwent 3-fold serial dilution for a total of 10 concentration points, with DMSO at the 11th point. To another 96-well plate was added 95 μL of cell culture medium (DME/F-12+10% FBS), 5 μL of test samples with different concentrations were added to each well, followed by uniform mixing, and then 10 μL of test samples with different concentrations were added to each well, with two duplicate wells set for each sample. The plate was incubated in an incubator for 6 h (37° C., 5% CO2). The 96-well cell culture plate was taken out, and 100 μL of ONE-Glo™ reagent was added to each well, followed by incubation at room temperature for 10 min. The plate was placed in a microplate reader (EnVision 2105, PE) for determination of chemiluminescence.
Data were processed and analyzed using Microsoft Excel and Graphpad Prism 5.

T1 sequence (P43220 24-463): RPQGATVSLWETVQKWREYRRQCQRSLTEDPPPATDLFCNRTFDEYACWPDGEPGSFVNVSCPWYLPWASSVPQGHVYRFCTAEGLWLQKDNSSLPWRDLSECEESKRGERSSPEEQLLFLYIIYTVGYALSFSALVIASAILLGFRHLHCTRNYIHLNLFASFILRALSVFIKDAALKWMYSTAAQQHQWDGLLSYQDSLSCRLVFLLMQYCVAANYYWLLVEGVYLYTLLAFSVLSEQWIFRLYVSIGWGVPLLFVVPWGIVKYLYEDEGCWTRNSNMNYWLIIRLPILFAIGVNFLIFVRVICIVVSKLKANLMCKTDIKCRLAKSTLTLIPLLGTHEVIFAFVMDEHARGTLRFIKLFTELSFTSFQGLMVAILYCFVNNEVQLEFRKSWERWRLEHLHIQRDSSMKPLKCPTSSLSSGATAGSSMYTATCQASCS

Row | Compound | EC50 | Emax
1 | N#Cc1ccc(CSc2nc(C3=CCN(Cc4nc5ccc(C(=O)O)cc5n4C[C@@H]4CCO4)CC3)ccc2F)c(F)c1 [Example 6, (S)-2-((6-(4-cyano-2-fluorobenzyl)thio-5-fluoro-3′,6′-dihydro-[2,4′-bipyridin]-1′(2′H)-yl)methyl)-1-(oxetan-2-ylmethyl)-1H-benzo[d]imidazole-6-carboxylic acid] | 0.85 nM | 108%
2 | N#Cc1ccc(COc2cccc(C3=CCN(Cc4nc5ccc(C(=O)O)cc5n4C[C@@H]4CCO4)CC3)n2)c(F)c1 [Example 1] | 0.12 nM | 110%
3 | N#Cc1ccc(CSc2cccc(C3=CCN(Cc4nc5ccc(C(=O)O)cc5n4C[C@@H]4CCO4)CC3)n2)c(F)c1 [Example 5, (S)-2-((6-(4-cyano-2-fluorobenzyl)thio-3′,6′-dihydro-[2,4′-bipyridin]-1′(2′H)-yl)methyl)-1-(oxetan-2-ylmethyl)-1H-benzo[d]imidazole-6-carboxylic acid] | 1.93 nM | 110%

Continued, values first:

Row | EC50 | Emax | Compound
4 | 1.38 nM | 106% | CC(Oc1cccc(C2=CCN(Cc3nc4ccc(C(=O)O)cc4n3C[C@@H]3CCO3)CC2)n1)c1ccc(Cl)cc1F (stereo partly drawn) [Example 3]
5 | 0.45 nM | 107% | C[C@]1(c2ccc(Cl)cc2F)Oc2cccc(C3=CCN(Cc4nc5ccc(C(=O)O)nc5n4C[C@@H]4CCO4)CC3)c2O1 [Example 7, 2-((4-((S)-2-(4-chloro-2-fluorophenyl)-2-methylbenzo[d][1,3]dioxol-4-yl)-3,6-dihydropyridin-1(2H)-yl)methyl)-3-(((S)-oxetan-2-yl)methyl)-3H-imidazo[4,5-b]pyridine-5-carboxylic acid]
6 | 0.12 nM | 104% | C[C@]1(c2ccc(Cl)cc2F)Oc2cccc(C3=CCN(Cc4nc5ccc(C(=O)O)cc5n4C[C@@H]4CCO4)CC3)c2O1 [Example 4, 2-((4-((S)-2-(4-chloro-2-fluorophenyl)-2-methylbenzo[d][1,3]dioxol-4-yl)-3,6-dihydropyridin-1(2H)-yl)methyl)-1-(((S)-oxetan-2-yl)methyl)-1H-benzo[d]imidazole-6-carboxylic acid]
7 | 0.92 nM | 110% | CC1(c2ccc(Cl)cc2F)Oc2cccc(C3=CCN(Cc4nc5ccc(C(=O)O)cc5n4C[C@@H]4CCO4)CC3)c2O1 (stereo partly drawn) [Example 2, 2-((4-(2-(4-chloro-2-fluorophenyl)-2-methylbenzo[d][1,3]dioxol-4-yl)-3,6-dihydropyridin-1(2H)-yl)methyl)-1-(((S)-oxetan-2-yl)methyl)-1H-benzo[d]imidazole-6-carboxylic acid]

target: T2, hERG potassium ion channel (Homo sapiens, UniProt Q12809); experiment: Blocking effect on hERG potassium currents, automated patch clamp in HEK293-hERG cells; format: cell-based; conditions: automated patch clamp (Patchliner)
T2 construct: expressed in transfected cells
Description: The blocking effect of hERG potassium currents by the compounds of the present disclosure was tested in a stable cell strain transfected with an hERG potassium channel using an automated patch clamp.
HEK293 cell lines were transfected with pCDNA3.1(+) from which the hERG gene had been constructed, and then stably-expressed monoclonal HEK293-hERG cell strains were selected by addition of G418. Stably-expressed HEK293-hERG cell strains were subcultured at a density of 1:4 in an MEM/EBSS medium (10% FBS, […] G418, 1% MEM non-essential amino acid solution (100×), 1% sodium pyruvate solution) and subjected to an automated patch clamp experiment within 48-72 h after the start of the culture. On the day of experiment, the cells were digested with […] pancreatin (life technologies, 12563-029), collected by centrifugation and resuspended in an extracellular fluid (140 mM NaCl, 4 mM KCl, 1 mM MgCl2, 2 mM CaCl2, 5 mMD glucose monohydrate, 10 mM HEPES, pH 7.4, 298 mOsmol) to prepare a cell suspension. The cell suspension was placed on the cell bank of the Patchliner instrument that transferred the cells to the chip (NPC-16) using a negative pressure controller. […] The currents at various concentrations of the compound and in the blank control were analyzed by data analysis software provided by HEAK EPC10 patch clamp amplifier (Nanion) and Pathlinersoftware and Pathcontrol HTsoftware. […]

T2 sequence (Q12809 whole entry): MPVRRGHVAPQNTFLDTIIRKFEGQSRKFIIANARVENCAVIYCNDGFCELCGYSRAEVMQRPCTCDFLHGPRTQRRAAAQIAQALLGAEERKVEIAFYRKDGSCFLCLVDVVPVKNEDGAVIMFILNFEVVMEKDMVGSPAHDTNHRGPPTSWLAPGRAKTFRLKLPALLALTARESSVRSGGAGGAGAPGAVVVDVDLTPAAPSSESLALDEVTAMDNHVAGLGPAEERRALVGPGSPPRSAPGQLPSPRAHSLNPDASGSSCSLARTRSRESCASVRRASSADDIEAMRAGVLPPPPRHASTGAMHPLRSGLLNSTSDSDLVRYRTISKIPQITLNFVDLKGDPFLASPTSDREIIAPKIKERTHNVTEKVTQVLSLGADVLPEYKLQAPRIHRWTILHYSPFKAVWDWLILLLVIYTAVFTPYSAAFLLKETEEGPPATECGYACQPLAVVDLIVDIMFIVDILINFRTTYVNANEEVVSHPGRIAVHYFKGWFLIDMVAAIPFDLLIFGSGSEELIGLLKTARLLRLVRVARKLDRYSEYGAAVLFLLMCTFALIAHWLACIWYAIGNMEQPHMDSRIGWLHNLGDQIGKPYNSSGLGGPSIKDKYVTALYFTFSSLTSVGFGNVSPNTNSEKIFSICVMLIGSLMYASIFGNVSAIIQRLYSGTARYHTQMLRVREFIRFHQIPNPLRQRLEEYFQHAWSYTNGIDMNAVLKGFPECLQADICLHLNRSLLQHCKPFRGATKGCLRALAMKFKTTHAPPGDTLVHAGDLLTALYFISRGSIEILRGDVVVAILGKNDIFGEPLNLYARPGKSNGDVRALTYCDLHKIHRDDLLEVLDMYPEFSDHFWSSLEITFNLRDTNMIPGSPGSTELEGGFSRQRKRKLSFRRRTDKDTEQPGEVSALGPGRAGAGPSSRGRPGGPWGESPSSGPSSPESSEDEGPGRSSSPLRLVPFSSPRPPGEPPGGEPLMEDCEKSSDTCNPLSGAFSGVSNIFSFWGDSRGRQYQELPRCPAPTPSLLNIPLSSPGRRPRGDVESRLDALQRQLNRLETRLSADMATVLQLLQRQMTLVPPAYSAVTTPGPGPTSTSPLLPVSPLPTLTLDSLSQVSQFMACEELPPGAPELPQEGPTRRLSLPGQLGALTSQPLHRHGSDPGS

Row | Compound | IC50
8 | C[C@]1(c2ccc(Cl)cc2F)Oc2cccc(C3=CCN(Cc4nc5ccc(C(=O)O)cc5n4C[C@@H]4CCO4)CC3)c2O1 [Example 4, 2-((4-((S)-2-(4-chloro-2-fluorophenyl)-2-methylbenzo[d][1,3]dioxol-4-yl)-3,6-dihydropyridin-1(2H)-yl)methyl)-1-(((S)-oxetan-2-yl)methyl)-1H-benzo[d]imidazole-6-carboxylic acid] | 22000 nM
